Holding throughout (assay): NCI anticancer screen, dose series, 48 h
In assay [1] the test system is A498 renal.
Assay [2] concerns HCC-2998 colon.
The subject of assay [3] is HT29 colon.
Assay [4] concerns IGROV1 ovarian.
Assay [5] deals with NCI-H460 lung.
In assay [6] the test system is OVCAR-4 ovarian.
The test system of assay [7] is SF-295 CNS.
Assay [8] deals with SF-539 CNS.
Assay [9] has as its system SK-OV-3 ovarian.
The test system of assay [10] is UACC-257 melanoma.

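48-hour exposure; five concentrations; linearly interpolated endpoints. GI50 marks 50% less growth. TGI is the concentration that stops growth completely.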 Bounds are passed on as bounds.

Regarding `CN(C)C(=S)N=Nc1c(O)[nH]c2ccccc12`, the GI50 in [1] was 6.28 µM; in assay [2], 1.54 µM; in assay [3], 0.558 µM; in assay [4], 0.508 µM; in assay [5], 0.374 µM; in assay [6], 0.394 µM. The GI50 is 0.315 µM in assay [7], 0.499 µM in assay [8], 0.79 µM in assay [9] and 2.31 µM in [10]. The TGI in assay [1] was determined as 20.4 µM; in assay [2] it was 17.2 µM; in assay [3] it was 17 µM; in assay [4], 7.39 µM; in assay [5], 2.49 µM; in [6], 5.59 µM. Besides, the TGI in assay [7] is 14.2 µM; in assay [8], 8.39 µM; in assay [9] it was 13.9 µM; in assay [10], 17 µM.
Turning to `Cc1nc2sc(C(=O)Nc3ccccc3)c(N)c2cc1C(=O)/C=C/c1ccccc1`, the GI50 is 2.21 µM in [1]; 1.77 µM in assay [2]; 1.77 µM in assay [3]; 1.99 µM in assay [4]; 1.96 µM in assay [5]; 3.1 µM in assay [6]. Also, the GI50 is 2.77 µM in [7], 1.88 µM in assay [8], 4.03 µM in assay [9] and 2.11 µM in [10]. The TGI in assay [1] stood at 6.08 µM; in assay [2], 3.28 µM; in assay [3], 3.95 µM; in assay [4], 4.73 µM; in [5] it was 4.15 µM; in assay [6], 18.5 µM. The TGI in assay [7] turned out to be 7.56 µM; in [8] it was 3.56 µM; in assay [9], 23.3 µM; in assay [10] it was 5.29 µM.
Regarding `CCCCn1cnc2c(SC)ncnc21`, the TGI in assay [1], in assay [2], in assay [3], in assay [4], in [5] and in assay [6] was more than 100 µM in each case. Further, the TGI in assay [7], in [8], in assay [9] and in [10] was more than 100 µM throughout.
Consider `COc1ccc2oc3cccc(NCCN(C)C)c3c(=O)c2c1`, for which the TGI came out at 33.8 µM in [1]; 21.9 µM in assay [2]; 20.3 µM in assay [3]; 31.2 µM in assay [4]; 21.2 µM in assay [5]; 27.7 µM in assay [6]. Also, the TGI in assay [7] amounted to 29.9 µM; in assay [8], 28.1 µM; in assay [9], 28.7 µM; in assay [10], 30.8 µM.
As for `CC(C)CC1=[N+]=C(NC#N)N=C(CCC(=O)Nc2ccccc2[N+](=O)[O-])C1`, the TGI in [1], in assay [2], in assay [3], in assay [4], in assay [5] and in assay [6] was more than 100 µM in each case. Moreover, the TGI in assay [7], in assay [8], in [9] and in assay [10] was more than 100 µM throughout.
`CC(=O)OC1c2ccccc2CCCCCCC12OCCO2` (stereo not given): the TGI in assay [1], in assay [2], in [3], in assay [4], in assay [5] and in [6] was more than 100 µM throughout. Also, the TGI in assay [7], in assay [8], in assay [9] and in assay [10] was more than 100 µM throughout.
Regarding `COc1ccc2c(c1)OC(N(C(C)=O)C(C)=O)=C(C#N)C2c1ccc(F)cc1` (stereo not given), the GI50 in [1] was 2.43 µM; in assay [2], 4.93 µM; in assay [3] it was 2.55 µM; in [4], 2.82 µM; in [5], 1.88 µM; in [6] it was 7.93 µM. Further, the GI50 in assay [7] is 2.83 µM; in assay [8], 1.55 µM; in assay [9], 2.47 µM; in [10] it was 23 µM. The TGI in assay [1] was more than 100 µM; in assay [2], more than 100 µM; in assay [3], 18 µM; in [4], more than 100 µM; in assay [5] it was 45.5 µM; in [6], more than 100 µM. Also, the TGI was more than 100 µM in assay [7], 6.93 µM in assay [8], more than 100 µM in assay [9] and more than 100 µM in assay [10].
In the case of `Cc1cccc(C(C)C)c1NC(=O)C(=O)CC(=O)c1c(C)n([O-])c2ccccc2[n+]1=O`, the TGI in [1] was more than 100 µM; in assay [2], more than 100 µM; in [3], more than 100 µM; in [4], more than 100 µM; in [5], 60 µM; in [6] it was 95 µM. Moreover, the TGI in assay [7] is more than 100 µM; in [8], 83.8 µM; in [9] it was more than 100 µM; in assay [10], 48 µM.

The values are drawn from PubChem BioAssay (NCI).
